Measured values published in patent US10702475B2, “Liposome containing compositions and their use in personal care and food products” (priority 2017, dated 2020).

Test: Evaluation of polyglyceryl ester surfactants for structuring a liposome
Type: physicochemical
Conditions: class given by column head
Method: A series of polyglyceryl ester surfactants were evaluated to identify those capable of structuring a liposome. These reveal that liposome formation requires from 8 to 12 units of glycerol and a di-ester of C14-C18 fatty acid to establish a liposomal structure.

Row | Substance | structure formed by the surfactant (O/W emulsion, liposome or W/O emulsion)
1 | Polyglyceryl-10 Dioleate | forms liposomes
2 | Polyglyceryl-10 Mono/Dioleate | forms O/W emulsions
